Each block holds one compound with its values, some of them ahead of it.
Columns and labels:
Rattus norvegicus [1] = test: Percent change in total cholesterol in cholic acid (0.5%)-cholesterol (1.5%)-peanut oil (5.5%)-fed rats after administration of 30 mg/kg was determined; type: functional
Rattus norvegicus [2] = test: Percent change in total cholesterol in cholic acid (0.5%)-cholesterol (1.5%)-peanut oil (5.5%)-fed rats after administration of 30 mg/kg for 7 days was determined; type: functional
Rattus norvegicus [3] = test: Percent change in total cholesterol in cholic acid (0.5%)-cholesterol (1.5%)-peanut oil (5.5%)-fed rats after administration of 3 mg/kg was determined; type: functional
Rattus norvegicus [4] = test: Percent change in total cholesterol in cholic acid (0.5%)-cholesterol (1.5%)-peanut oil (5.5%)-fed rats after administration of 10 mg/kg for 7 days was determined; type: functional
[5] = target: T1, Sterol O-acyltransferase 1 (Rattus norvegicus, UniProt O70536); test: Concentration required for the in vitro inhibition of Acyl coenzyme A:cholesterol acyltransferase (ACAT) in liver microsomes isolated from cholesterol-fed rats was determined; parameters: species or system Microsome
T1 sequence (O70536 whole entry): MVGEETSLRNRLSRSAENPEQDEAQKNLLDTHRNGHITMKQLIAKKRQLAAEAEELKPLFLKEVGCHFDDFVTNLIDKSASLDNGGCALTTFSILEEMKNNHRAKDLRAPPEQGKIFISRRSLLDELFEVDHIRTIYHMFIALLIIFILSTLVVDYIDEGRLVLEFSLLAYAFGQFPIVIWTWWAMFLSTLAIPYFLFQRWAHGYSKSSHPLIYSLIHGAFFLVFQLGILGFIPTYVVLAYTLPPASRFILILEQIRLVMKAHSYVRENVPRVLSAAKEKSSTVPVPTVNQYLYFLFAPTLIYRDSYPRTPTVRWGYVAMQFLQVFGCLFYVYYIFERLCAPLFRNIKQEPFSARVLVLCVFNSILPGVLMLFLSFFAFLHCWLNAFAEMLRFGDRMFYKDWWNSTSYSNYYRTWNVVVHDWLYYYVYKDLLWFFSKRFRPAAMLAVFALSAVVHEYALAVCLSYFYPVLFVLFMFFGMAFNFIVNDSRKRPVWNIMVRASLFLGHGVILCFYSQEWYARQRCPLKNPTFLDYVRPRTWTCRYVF

Rattus norvegicus [6] = test: Percent change in total cholesterol in cholic acid (0.5%)-cholesterol (1.5%)-peanut oil (5.5%)-fed rats after administration of 3 mg/kg for 7 days was determined; type: functional
Rattus norvegicus [7] = test: Percent change in total cholesterol in cholic acid (0.5%)-cholesterol (1.5%)-peanut oil (5.5%)-fed rats after administration of 30 mg/kg was determined.; type: functional
Rattus norvegicus [8] = test: Percent change in total cholesterol in cholic acid (0.5%)-cholesterol (1.5%)-peanut oil (5.5%)-fed rats after administration of 10 mg/kg for 7 days was determined.; type: functional
Rattus norvegicus [9] = test: Percent change in total cholesterol in cholic acid (0.5%)-cholesterol (1.5%)-peanut oil (5.5%)-fed rats after administration of 3 mg/kg for 7 days was determined.; type: functional
Rattus norvegicus [10] = test: Percent change in total cholesterol in cholic acid (0.5%)-cholesterol (1.5%)-peanut oil (5.5%)-fed rats after administration of 3 mg/kg was determined.; type: functional

SMILES: CCCCCCCCCCCCn1nnnc1C(C(=O)Nc1c(C(C)C)cccc1C(C)C)c1ccccc1 (stereo not drawn)
Change TC (Rattus norvegicus [1]): -44%
Change TC (Rattus norvegicus [2]): -24%

SMILES: CCCCCCCCCCCCn1nnc(C(C(=O)Nc2c(C(C)C)cccc2C(C)C)c2ccccc2)n1 (stereo not drawn)
Change TC (Rattus norvegicus [1]): -49%
Change TC (Rattus norvegicus [3]): -46%
Change TC (Rattus norvegicus [2]): -38%

IC50 [5]: 330 nM
SMILES: CCCCCCCCCCCCn1nnc(C(C(=O)Nc2c(OC)cc(OC)cc2OC)c2ccccc2)n1 (stereo in doubt; 8-(-))
Change TC (Rattus norvegicus [4]; 10 mg/kg): -11%
Change TC (Rattus norvegicus [1]; 30 mg/kg): -64%
Change TC (Rattus norvegicus [3]; 3 mg/kg): -47%
Change TC (Rattus norvegicus [6]; 3 mg/kg): 7%

SMILES: CCCCCCCCCCCCn1nnnc1C(C(=O)Nc1c(OC)cc(OC)cc1OC)c1ccccc1 (stereo not drawn)
Change TC (Rattus norvegicus [7]): -38%

SMILES: CCCCCCCCCCCCn1nnc(C(C(=O)Nc2c(OC)cc(OC)cc2OC)c2ccccc2)n1 (single isomer, unassigned; (+))
Change TC (Rattus norvegicus [4]; 10 mg/kg): -60%
Change TC (Rattus norvegicus [1]; 30 mg/kg): -68%
Change TC (Rattus norvegicus [3]; 3 mg/kg): -66%
Change TC (Rattus norvegicus [6]; 3 mg/kg): -55%

SMILES: CCCCCCCCCCCCn1nnc(C(C(=O)Nc2c(OC)cc(OC)cc2OC)c2ccccc2)n1 (stereo not drawn)
Change TC (Rattus norvegicus [7]): -63%
Change TC (Rattus norvegicus [8]): -59%
Change TC (Rattus norvegicus [9]): -23%
Change TC (Rattus norvegicus [10]): -65%

SMILES: CCCCCCCCCCC(C)(C)C(=O)Nc1c(OC)cc(OC)cc1OC [CL-976]
Change TC (Rattus norvegicus [4]): -17%
Change TC (Rattus norvegicus [1]): -57%
Change TC (Rattus norvegicus [3]): -15%
Change TC (Rattus norvegicus [6]): -12%
